Activity calls are given as the source filed them. The calls are words filed in the database; no cut-off is given here.
Tests used:
[1] = biological target: T1, Nuclear receptor subfamily 1 group D member 1 (Homo sapiens, UniProt P20393); assay: Agonist activity at his6-tagged human REV-ERBalpha LBD (281 to 614 residues) expressed in Escherichia coli assessed as increase in SMRT corepressor peptide […] by TR-FRET assay incubated for 2 hrs by TR-FRET assay
T1 sequence (P20393 whole entry): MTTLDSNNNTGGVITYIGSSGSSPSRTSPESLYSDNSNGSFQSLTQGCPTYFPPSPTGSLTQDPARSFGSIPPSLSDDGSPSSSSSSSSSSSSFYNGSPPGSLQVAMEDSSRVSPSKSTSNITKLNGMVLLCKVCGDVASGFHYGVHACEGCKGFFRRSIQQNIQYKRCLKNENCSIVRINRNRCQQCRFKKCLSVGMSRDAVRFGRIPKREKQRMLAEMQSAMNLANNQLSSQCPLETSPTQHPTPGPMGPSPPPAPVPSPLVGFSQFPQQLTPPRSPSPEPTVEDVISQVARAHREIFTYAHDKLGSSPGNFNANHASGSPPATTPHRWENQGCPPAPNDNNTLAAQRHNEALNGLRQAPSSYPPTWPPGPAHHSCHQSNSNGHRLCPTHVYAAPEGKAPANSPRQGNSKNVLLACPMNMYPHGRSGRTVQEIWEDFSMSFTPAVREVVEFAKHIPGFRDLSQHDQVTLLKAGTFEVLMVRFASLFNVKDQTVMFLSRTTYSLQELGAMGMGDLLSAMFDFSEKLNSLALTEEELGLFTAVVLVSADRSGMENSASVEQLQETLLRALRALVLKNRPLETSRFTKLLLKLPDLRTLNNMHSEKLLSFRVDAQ

CYP3A4 = CYP3A4 (Homo sapiens, UniProt P08684); assay: Inhibition of CYP3A4 (unknown origin) at 10 uM relative to control; assay type: ADME
Mus musculus [2] = assay: In-vivo agonist activity at REV-ERBalpha in experimental autoimmune encephalomyelitis C57BL/6 mouse model assessed as reduction in clock mRNA expression by RT-PCR analysis; assay type: functional
Mus musculus [3] = assay: Protection against experimental autoimmune encephalomyelitis C57BL/6 mouse model assessed as decrease in number of T cells at 25 to 50 mg/kg, ip bid by flow cytometry analysis; assay type: functional, organism-based; details: T-cell, dose 25-50 mg/kg
Mus musculus [4] = assay: Protection against experimental autoimmune encephalomyelitis C57BL/6 mouse model assessed as reduction in disease severity at 25 to 50 mg/kg, ip bid; assay type: functional, organism-based; details: dose 25-50 mg/kg
Th17 = assay: Downregulation of IL-17A expression in human Th17 cells; assay type: functional, cell-based; details: dose 1.25-10 µM
CYP2C9 = CYP2C9 (Homo sapiens, UniProt P11712); assay: Inhibition of CYP2C9 (unknown origin) at 10 uM relative to control; assay type: ADME
Mus musculus [5] = assay: Protection against experimental autoimmune encephalomyelitis C57BL/6 mouse model assessed as disease onset at 25 to 50 mg/kg, ip bid; assay type: functional, organism-based; details: dose 25-50 mg/kg
[6] = biological target: T2, Nuclear receptor subfamily 1 group D member 2 (Homo sapiens) (UniProt Q14995); assay: Agonist activity at human REV-ERBbeta
T2 sequence (whole entry): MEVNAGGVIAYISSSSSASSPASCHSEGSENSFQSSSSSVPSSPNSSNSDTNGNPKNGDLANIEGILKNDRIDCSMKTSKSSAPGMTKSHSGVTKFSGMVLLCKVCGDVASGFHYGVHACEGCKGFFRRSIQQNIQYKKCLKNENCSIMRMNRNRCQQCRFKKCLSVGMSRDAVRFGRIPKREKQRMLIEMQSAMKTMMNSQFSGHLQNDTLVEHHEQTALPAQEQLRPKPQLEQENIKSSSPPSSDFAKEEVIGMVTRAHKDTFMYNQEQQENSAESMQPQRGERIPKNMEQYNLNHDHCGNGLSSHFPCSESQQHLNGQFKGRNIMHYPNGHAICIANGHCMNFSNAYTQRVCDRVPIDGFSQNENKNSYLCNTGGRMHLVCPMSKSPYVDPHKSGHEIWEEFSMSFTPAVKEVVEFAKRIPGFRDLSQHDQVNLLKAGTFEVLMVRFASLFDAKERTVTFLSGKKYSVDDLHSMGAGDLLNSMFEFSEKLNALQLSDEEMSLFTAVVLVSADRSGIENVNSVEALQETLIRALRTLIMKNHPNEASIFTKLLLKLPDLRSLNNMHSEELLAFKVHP

[7] = Toxicity in experimental autoimmune encephalomyelitis C57BL/6 mouse model assessed as animal weight loss at 25 to 50 mg/kg, ip bid; assay type: organism-based; details: in vivo, dose 25-50 mg/kg
[8] = Cmax in mouse at 50 mg/kg, ip measured for 12 hrs; assay type: ADME, organism-based; parameters: time 12 hrs, dose 50 mg/kg, route ip; details: in vivo
[9] = biological target: T1, Nuclear receptor subfamily 1 group D member 1; assay: Agonist activity at REV-ERBalpha LBD in HEK293 cells co-transfected with pG5-UAS pCMV-Gal4 incubated for 18 hrs by multimode plate reader analysis; assay type: cell-based
[10] = Metabolic stability in human liver microsome assessed as half life; assay type: ADME; details: liver microsomes
Mus musculus [11] = assay: Protection against experimental autoimmune encephalomyelitis C57BL/6 mouse model assessed as decrease in frequency of T cells at 25 to 50 mg/kg, ip bid by flow cytometry analysis; assay type: functional, organism-based; details: T-cell, dose 25-50 mg/kg
CYP2D6 = CYP2D6 (Homo sapiens, UniProt P10635); assay: Inhibition of CYP2D6 (unknown origin) at 10 uM relative to control; assay type: ADME
Mus musculus [12] = assay: In-vivo agonist activity at REV-ERBalpha in experimental autoimmune encephalomyelitis C57BL/6 mouse model assessed as reduction in bmal1 mRNA expression by RT-PCR analysis; assay type: functional
CYP1A2 = biological target: T3, CYP1A2 (Homo sapiens, UniProt P05177); assay: Inhibition of CYP1A2 (unknown origin) at 10 uM relative to control; assay type: ADME
T3 sequence (P05177 whole entry): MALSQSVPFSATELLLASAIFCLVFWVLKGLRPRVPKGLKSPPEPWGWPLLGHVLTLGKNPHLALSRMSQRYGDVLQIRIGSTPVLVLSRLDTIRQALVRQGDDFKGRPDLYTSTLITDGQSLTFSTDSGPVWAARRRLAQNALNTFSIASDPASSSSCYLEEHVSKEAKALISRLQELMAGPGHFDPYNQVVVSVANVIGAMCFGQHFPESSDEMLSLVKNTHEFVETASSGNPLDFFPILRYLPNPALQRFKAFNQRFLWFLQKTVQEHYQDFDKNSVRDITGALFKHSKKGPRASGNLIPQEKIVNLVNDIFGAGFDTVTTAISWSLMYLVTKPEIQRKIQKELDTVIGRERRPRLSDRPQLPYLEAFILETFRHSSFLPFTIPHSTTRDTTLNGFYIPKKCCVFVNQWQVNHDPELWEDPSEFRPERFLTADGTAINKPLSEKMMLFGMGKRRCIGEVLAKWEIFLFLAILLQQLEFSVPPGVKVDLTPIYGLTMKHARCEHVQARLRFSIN

[13] = Cytotoxicity against human Th17 cells assessed as reduction in cell viability at 1.25 to 10 uM; assay type: toxicity, cell-based; details: th17, 10 µM, dose 1.25-10 µM
[14] = Cmax in mouse at 50 mg/kg, ip measured at 2 hrs; assay type: ADME, organism-based; parameters: dose 50 mg/kg, time 2 hrs, route ip; details: in vivo
[15] = Metabolic stability in mouse liver microsome assessed as half life; assay type: ADME; details: liver microsomes

Chain of CYP3A4 (P08684 whole entry): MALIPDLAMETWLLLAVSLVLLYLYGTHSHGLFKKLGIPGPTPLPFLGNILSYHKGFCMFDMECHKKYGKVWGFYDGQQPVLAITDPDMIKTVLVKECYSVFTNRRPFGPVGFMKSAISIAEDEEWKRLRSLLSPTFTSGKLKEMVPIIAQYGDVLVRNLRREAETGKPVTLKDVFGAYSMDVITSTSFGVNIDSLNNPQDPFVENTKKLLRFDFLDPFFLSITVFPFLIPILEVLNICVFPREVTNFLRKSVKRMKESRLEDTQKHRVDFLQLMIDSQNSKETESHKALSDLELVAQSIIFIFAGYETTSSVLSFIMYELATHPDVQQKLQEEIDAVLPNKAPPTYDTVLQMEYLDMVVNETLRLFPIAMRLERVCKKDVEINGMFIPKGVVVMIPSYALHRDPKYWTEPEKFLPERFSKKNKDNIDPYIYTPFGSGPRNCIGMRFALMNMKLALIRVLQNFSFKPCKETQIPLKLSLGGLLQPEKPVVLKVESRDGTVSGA
Chain of CYP2D6 (P10635 whole entry): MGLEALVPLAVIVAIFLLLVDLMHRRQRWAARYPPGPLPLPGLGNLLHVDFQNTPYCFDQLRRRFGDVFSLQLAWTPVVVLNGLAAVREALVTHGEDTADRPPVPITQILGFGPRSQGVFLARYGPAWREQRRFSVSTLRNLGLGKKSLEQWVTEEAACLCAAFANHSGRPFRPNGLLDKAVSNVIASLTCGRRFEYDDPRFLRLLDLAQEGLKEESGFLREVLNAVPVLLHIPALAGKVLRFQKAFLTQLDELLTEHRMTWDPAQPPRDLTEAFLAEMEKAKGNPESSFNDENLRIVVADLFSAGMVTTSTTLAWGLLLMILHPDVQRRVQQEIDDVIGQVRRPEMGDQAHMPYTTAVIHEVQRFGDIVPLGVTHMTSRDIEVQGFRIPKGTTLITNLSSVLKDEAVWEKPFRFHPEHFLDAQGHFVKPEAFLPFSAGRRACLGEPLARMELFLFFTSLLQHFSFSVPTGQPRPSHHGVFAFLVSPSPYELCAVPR
Chain of CYP2C9 (P11712 whole entry): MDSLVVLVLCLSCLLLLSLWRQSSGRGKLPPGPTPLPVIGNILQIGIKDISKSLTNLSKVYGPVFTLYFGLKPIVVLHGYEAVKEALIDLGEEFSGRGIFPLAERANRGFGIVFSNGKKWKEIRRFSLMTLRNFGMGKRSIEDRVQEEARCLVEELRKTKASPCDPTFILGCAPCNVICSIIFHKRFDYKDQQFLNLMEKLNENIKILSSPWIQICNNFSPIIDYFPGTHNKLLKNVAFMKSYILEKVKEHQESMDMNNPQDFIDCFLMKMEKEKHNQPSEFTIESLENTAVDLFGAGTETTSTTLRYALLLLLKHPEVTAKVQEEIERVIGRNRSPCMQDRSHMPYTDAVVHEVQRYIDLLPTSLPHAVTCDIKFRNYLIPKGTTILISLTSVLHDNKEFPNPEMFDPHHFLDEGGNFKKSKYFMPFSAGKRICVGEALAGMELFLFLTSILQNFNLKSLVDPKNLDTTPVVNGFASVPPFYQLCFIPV

Row | Structure (SMILES) | EC50 [1] [nM] | half-life [10] [min] | half-life [15] [min] | other results
1 | CC(C)Cn1cc(CCNS(=O)(=O)N(C)C)c2ccc(-c3cnn(C)c3)cc21 | > 5000 |  |  | 
2 | CC(C)Cn1cc(CCNS(=O)(=O)N(C)C)c2ccc(-c3ccccn3)cc21 | 1000 |  |  | inhibition at 10 µM (CYP3A4): 96%
3 | CC(C)Cn1cc(CCNS(=O)(=O)C2CC2)c2ccc(-c3ccccc3C(F)(F)F)cc21 |  | 4 | 3 | 
4 | CC(C)Cn1cc(CCNS(=O)(=O)N(C)C)c2ccccc21 | 990 |  |  | 
5 | CC(C)Cn1cc(CCNS(=O)(=O)N(C)C)c2ccc(-c3cncnc3)cc21 | 2900 |  |  | 
6 | CC(C)Cn1cc(CCNS(=O)(=O)N(C)C)c2ccc(-c3ccccc3)cc21 |  |  |  | inhibition at 10 µM (CYP3A4): 22%
7 | CC(C)Cn1cc(C(C)(C)NS(=O)(=O)C2CC2)c2ccc(-c3ccccc3C(F)(F)F)cc21 |  | 80 | 3 | 
8 | CC(C)Cn1cc(CNS(=O)(=O)C2CC2)c2ccc(-c3ccccc3C(F)(F)F)cc21 |  | 5 | 5 | 

Continued by falling EC50 [1], values first:

Row | EC50 [1] [nM] | half-life [10] [min] | half-life [15] [min] | Structure (SMILES) | other results
9 | 790 |  |  | CC(C)Cn1cc(CCNS(=O)(=O)N(C)C)c2ccc(-c3ccc(F)cc3)cc21 | 
10 | 370 |  |  | CC(C)Cn1cc(CCNS(=O)(=O)N(C)C)c2ccc(-c3cccc(C#N)c3)cc21 | 
11 | 160 |  |  | CC(C)Cn1cc(CCNS(=O)(=O)N(C)C)c2ccc(-c3cccnc3)cc21 | inhibition at 10 µM (CYP3A4): 96%
12 | 110 | 76 | 32 | CC(C)Cn1cc(C(NS(=O)(=O)C2CC2)C(F)(F)F)c2ccc(-c3ccccc3C(F)(F)F)cc21 (stereo not given) | inhibition at 10 µM (CYP3A4): < 30%; Activity (Mus musculus [2]): Active; Activity (Mus musculus [3]): Active; Activity (Mus musculus [4]): Active; Activity (Th17): Active; inhibition at 10 µM (CYP2C9): < 30%; Activity (Mus musculus [5]): Active; Activity [6]: inactive; Activity [7]: Non-Toxic; Cmax [8]: ~0.8 µM; EC50 [9]: 500 nM; Activity (Mus musculus [11]): Active; inhibition at 10 µM (CYP2D6): < 30%; Activity (Mus musculus [12]): Active; inhibition at 10 µM (CYP1A2): < 30%; Activity [13]: Non-Toxic; Cmax [14]: 12.2 µM
13 | 25 |  |  | CC(C)Cn1cc(CCNS(=O)(=O)C2CC2)c2ccc(-c3ccncc3)cc21 | 
14 | 7 | 9 | 10 | CC(C)Cn1cc(C(C)NS(=O)(=O)C2CC2)c2ccc(-c3ccccc3C(F)(F)F)cc21 (stereo not given) | 
